# Data taken from patent publication US20140135217A1, “Use of Tetracyanodithiines as Fungicides” (BASF SE, priority 2011, published 2014).
# Tests used:
# [1] = test system: Corynespora cassiicola; type: cell-based
# [2] = test system: Fusarium poae; type: cell-based
# [3] = test system: Pyriculana oryzae; type: cell-based; details: Pyrior; vs compound-free control (100%); 405 nm, 7 days after inoculation; concentration not given
# [4] = test system: Phakopsora pachyrhizi; test: Glasshouse trial: protective control of soy bean rust on soy beans; type: in vivo; details: soy bean seedlings sprayed with 1000 ppm, inoculated 1 day later, assessed after fourteen days; untreated plants 90% infected
# Method: The spray solutions were prepared in several steps: The stock solution were prepared: a mixture of acetone and/or dimethylsulfoxide and the wetting agent/emulsifier Wettol, which is based on ethoxylated alkylphenoles, in a relation (volume) solvent-emulsifier of 99 to 1 was added to 25 mg of the compound to give a total of 10 ml. Water was then added to total volume of 100 ml. This stock solution was diluted with the described solvent-emulsifier-water mixture to the given concentration. Leaves of pot-grown soy bean seedlings were sprayed to run-off with an aqueous suspension, containing the concentration of active ingredient or their mixture as described below. The plants were allowed to air-dry. […] Then the plants were inoculated with spores of Phakopsora pachyrhizi. […] The extent of fungal attack on the leaves was visually assessed as % diseased leaf area.
# [5] = test system: Cochliobolus miyabeanus; test: Microtiter test, brown spot on rice (Cochmi); type: cell-based; details: vs compound-free control (100%), 405 nm, 7 days after inoculation, concentration not given
# [6] = test system: Rhynchosporium secalis; type: cell-based
# [7] = test system: Cercospora sojina; type: cell-based
# [8] = test system: Colletotrichum lagenarium; type: cell-based
# [9] = test system: Septoria glycines; type: cell-based
# [10] = test system: Fusarium culmorum; type: cell-based
# [11] = test system: Botryis cinerea; type: cell-based; details: Botrci; vs compound-free control (100%); 405 nm, 7 days after inoculation; concentration not given
# [12] = test system: Fusarium oxysporum; type: cell-based
# [13] = test system: Pyrenophora teres; type: cell-based
# [14] = test system: Colletotrichum truncatum; type: cell-based
# [15] = test system: Alternaria solani; type: cell-based
# [16] = test system: Septoria tritici; type: cell-based
# [17] = test system: Phytophthora infestans; type: cell-based; details: Phytin; pea juice-based or DDC medium; vs compound-free control (100%); 405 nm, 7 days after inoculation; concentration not given
# [18] = test system: Rhizoctonia solani; type: cell-based
structure (smiles),measurement,setting,value
"N#CC1=C(C#N)SC(C#N)=C(C#N)S1 [compound I.A, 2,3,5,6-tetracyano-[1,4]dithiine]",relative growth in % of the pathogen,[1],1%
same,relative growth in % of the pathogen,[2],0%
same,relative growth in % of the pathogen,[3],0%
same,infection (% diseased leaf area),[4],4%
same,relative growth in % of the pathogen,[5],0%
same,relative growth in % of the pathogen,[6],0%
same,relative growth in % of the pathogen,[7],0%
same,relative growth in % of the pathogen,[8],0%
same,relative growth in % of the pathogen,[9],0%
same,relative growth in % of the pathogen,[10],0%
same,relative growth in % of the pathogen,[11],1%
same,relative growth in % of the pathogen,[12],0%
same,relative growth in % of the pathogen,[13],0%
same,relative growth in % of the pathogen,[14],0%
same,relative growth in % of the pathogen,[15],0%
same,relative growth in % of the pathogen,[16],0%
same,relative growth in % of the pathogen,[17],0%
same,relative growth in % of the pathogen,[18],0%
